Test results: ChEMBL document CHEMBL4321845, “Discovery and Characterization of Potent Pan-Genotypic HCV NS5A Inhibitors Containing Novel Tricyclic Central Core Leading to Clinical Candidate” (J Med Chem, 2019); call rule not given here

What was measured:
[1] = Half life in rat at 1 mg/kg, iv measured up to 24 hrs by LC-MS/MS analysis; format: ADME, organism-based; details: in vivo
[2] = AUC (last) in beagle dog at 10 mg/kg, po measured up to 24 hrs by LC-MS/MS analysis; format: ADME, organism-based, Canis lupus familiaris; design: dose 10 mg/kg, time 0 - last, route oral; details: in vivo
[3] = Drug metabolism in rat liver microsomes assessed as metabolic rate at 1 uM preincubated for 5 mins before NADPH addition and measured up to 30 mins by LC-MS/MS analysis; format: ADME, Microsome; details: 0.5 h
[4] = Cmax in rat at 30 mg/kg, po measured up to 24 hrs by LC-MS/MS analysis; format: ADME, organism-based; design: dose 30 mg/kg, route oral; details: in vivo
[5] = Clearance in rat at 1 mg/kg, iv measured up to 24 hrs by LC-MS/MS analysis; format: ADME, organism-based; details: in vivo
[6] = Oral bioavailability in beagle dog at 10 mg/kg measured up to 24 hrs by LC-MS/MS analysis; format: ADME, organism-based, Canis lupus familiaris; details: in vivo
[7] = Protein binding in rat plasma; format: ADME, cell-free; details: read-out: PPB
CYP2C9 = CYP2C9 (Homo sapiens, UniProt P11712); experiment: Inhibition of CYP2C9 in pooled human liver microsomes at 10 uM pre-incubated for 5 mins before NADPH addition and measured after 10 mins by UPLC-MS/MS analysis relative to control; format: ADME
CYP2C9, sequence (P11712 whole entry): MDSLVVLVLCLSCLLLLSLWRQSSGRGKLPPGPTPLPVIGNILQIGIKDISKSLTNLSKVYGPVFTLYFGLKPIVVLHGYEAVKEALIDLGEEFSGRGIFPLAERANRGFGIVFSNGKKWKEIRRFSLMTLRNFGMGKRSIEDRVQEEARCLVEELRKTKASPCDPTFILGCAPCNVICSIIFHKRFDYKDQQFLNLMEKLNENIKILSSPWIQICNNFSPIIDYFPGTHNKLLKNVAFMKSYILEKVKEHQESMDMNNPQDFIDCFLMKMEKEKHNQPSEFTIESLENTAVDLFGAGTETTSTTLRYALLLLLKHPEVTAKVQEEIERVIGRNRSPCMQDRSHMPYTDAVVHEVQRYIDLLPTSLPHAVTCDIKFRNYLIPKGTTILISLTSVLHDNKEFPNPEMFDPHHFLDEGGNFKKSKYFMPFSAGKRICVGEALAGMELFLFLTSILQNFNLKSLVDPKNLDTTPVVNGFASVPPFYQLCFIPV

[8] = Volume of distribution at steady state in beagle dog at 1 mg/kg, iv measured up to 24 hrs by LC-MS/MS analysis; format: ADME, organism-based, Canis lupus familiaris; details: in vivo, read-out: Vdss
[9] = AUC (last) in rat at 10 mg/kg, po measured up to 24 hrs by LC-MS/MS analysis; format: ADME, organism-based; design: dose 10 mg/kg, time 0 - last, route oral; details: in vivo
[10] = Cytotoxicity in human HEK293 cells assessed as inhibition of cell growth at 10 uM incubated for 72 hrs by CCK8 assay relative to control; format: cell-based; details: read-out: GI
[11] = AUC (last) in rat at 30 mg/kg, po measured up to 24 hrs by LC-MS/MS analysis; format: ADME, organism-based; design: dose 30 mg/kg, time 0 - last, route oral; details: in vivo
[12] = Cytotoxicity in human HepG2 cells assessed as inhibition of cell growth at 10 uM incubated for 72 hrs by CCK8 assay relative to control; format: cell-based; details: read-out: GI
[13] = Drug metabolism in human liver microsomes assessed as metabolic rate at 1 uM preincubated for 5 mins before NADPH addition and measured up to 30 mins by LC-MS/MS analysis; format: ADME, Microsome; details: 0.5 h
[14] = Protein binding in human plasma; format: ADME, cell-free; details: read-out: PPB
[15] = Cmax in rat at 10 mg/kg, po measured up to 24 hrs by LC-MS/MS analysis; format: ADME, organism-based; design: dose 10 mg/kg, route oral; details: in vivo
[16] = Drug level in plasma of Wistar rat at 10 mg/kg, po measured at 4 hrs by LC-MS/MS analysis; format: ADME, organism-based
[17] = Cmax in beagle dog at 10 mg/kg, po measured up to 24 hrs by LC-MS/MS analysis; format: ADME, organism-based, Canis lupus familiaris; design: dose 10 mg/kg, route oral; details: in vivo
[18] = Tmax in rat at 100 mg/kg, po measured up to 24 hrs by LC-MS/MS analysis; format: ADME, organism-based; details: in vivo
[19] = Volume of distribution at steady state in rat at 1 mg/kg, iv measured up to 24 hrs by LC-MS/MS analysis; format: ADME, organism-based; details: in vivo, read-out: Vdss
[20] = Drug level in liver of Wistar rat at 10 mg/kg, po measured up to 8 hrs by LC-MS/MS analysis; format: ADME, organism-based; details: in vivo
[21] = Ratio of dug level in liver to plasma of Wistar rat at 10 mg/kg, po measured at 4 hrs by LC-MS/MS analysis; format: ADME, organism-based
CYP2D6 = CYP2D6 (Homo sapiens, UniProt P10635); experiment: Inhibition of CYP2D6 in pooled human liver microsomes at 10 uM pre-incubated for 5 mins before NADPH addition and measured after 10 mins by UPLC-MS/MS analysis relative to control; format: ADME
CYP2D6, sequence (P10635 whole entry): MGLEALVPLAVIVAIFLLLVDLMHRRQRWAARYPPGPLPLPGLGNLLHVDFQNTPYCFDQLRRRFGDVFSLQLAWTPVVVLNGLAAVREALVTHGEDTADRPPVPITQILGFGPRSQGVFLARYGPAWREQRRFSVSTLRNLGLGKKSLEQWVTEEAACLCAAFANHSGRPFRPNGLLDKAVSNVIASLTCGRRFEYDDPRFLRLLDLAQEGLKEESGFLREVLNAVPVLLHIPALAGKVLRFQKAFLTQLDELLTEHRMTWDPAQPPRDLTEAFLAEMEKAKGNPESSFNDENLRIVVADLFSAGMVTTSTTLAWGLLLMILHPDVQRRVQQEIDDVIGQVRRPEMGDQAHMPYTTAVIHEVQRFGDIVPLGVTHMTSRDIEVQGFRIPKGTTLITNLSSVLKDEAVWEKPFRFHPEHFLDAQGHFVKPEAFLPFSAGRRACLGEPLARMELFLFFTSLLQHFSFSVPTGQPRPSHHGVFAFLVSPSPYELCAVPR

[22] = Cmax in rat at 100 mg/kg, po measured up to 24 hrs by LC-MS/MS analysis; format: ADME, organism-based; design: dose 100 mg/kg, route oral; details: in vivo
[23] = Tmax in rat at 30 mg/kg, po measured up to 24 hrs by LC-MS/MS analysis; format: ADME, organism-based; details: in vivo
[24] = Tmax in rat at 10 mg/kg, po measured up to 24 hrs by LC-MS/MS analysis; format: ADME, organism-based; details: in vivo
[25] = Toxicity in beagle dog assessed as induction of emesis at 10 mg/kg measured up to 24 hrs; format: organism-based, Canis lupus familiaris; details: in vivo
[26] = AUC(last) in beagle dog at 1 mg/kg, iv measured up to 24 hrs by LC-MS/MS analysis; format: ADME, organism-based, Canis lupus familiaris; design: dose 1 mg/kg, route intravenous, time 0 - last; details: in vivo
[27] = Oral bioavailability in rat at 10 mg/kg measured up to 24 hrs by LC-MS/MS analysis; format: ADME, organism-based; details: in vivo
CYP3A4 = CYP3A4 (Homo sapiens, UniProt P08684); experiment: Inhibition of CYP3A4 in pooled human liver microsomes at 10 uM pre-incubated for 5 mins before NADPH addition and measured after 10 mins by UPLC-MS/MS analysis relative to control; format: ADME
CYP3A4, sequence (P08684 whole entry): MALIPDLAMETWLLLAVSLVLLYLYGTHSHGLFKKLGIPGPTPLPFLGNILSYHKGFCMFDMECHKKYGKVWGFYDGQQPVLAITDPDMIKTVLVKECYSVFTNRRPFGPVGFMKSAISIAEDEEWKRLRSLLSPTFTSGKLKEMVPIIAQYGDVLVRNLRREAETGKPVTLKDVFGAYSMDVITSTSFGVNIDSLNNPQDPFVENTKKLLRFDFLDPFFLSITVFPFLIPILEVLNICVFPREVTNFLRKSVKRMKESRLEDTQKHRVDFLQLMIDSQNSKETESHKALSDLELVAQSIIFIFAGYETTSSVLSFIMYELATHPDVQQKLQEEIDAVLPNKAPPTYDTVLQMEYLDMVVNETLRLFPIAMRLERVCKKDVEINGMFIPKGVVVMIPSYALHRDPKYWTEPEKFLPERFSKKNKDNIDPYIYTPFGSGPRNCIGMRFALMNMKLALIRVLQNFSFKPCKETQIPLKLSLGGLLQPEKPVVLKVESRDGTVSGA

[28] = Cytotoxicity in human HepG2 cells assessed as inhibition of cell growth at 3 uM incubated for 72 hrs by CCK8 assay relative to control; format: cell-based; details: read-out: GI
[29] = AUC(last) in rat at 1 mg/kg, iv measured up to 24 hrs by LC-MS/MS analysis; format: ADME, organism-based; design: dose 1 mg/kg, route intravenous, time 0 - last; details: in vivo
[30] = Cytotoxicity in human HuH7 cells assessed as inhibition of cell growth at 3 uM incubated for 72 hrs by CCK8 assay relative to control; format: cell-based, Huh-7; details: read-out: GI
[31] = Clearance in beagle dog at 1 mg/kg, iv measured up to 24 hrs by LC-MS/MS analysis; format: ADME, organism-based, Canis lupus familiaris; details: in vivo
[32] = Cytotoxicity in human HEK293 cells assessed as inhibition of cell growth at 3 uM incubated for 72 hrs by CCK8 assay relative to control; format: cell-based; details: read-out: GI
[33] = Half life in beagle dog at 1 mg/kg, iv measured up to 24 hrs by LC-MS/MS analysis; format: ADME, organism-based, Canis lupus familiaris; details: in vivo
[34] = Drug level in liver of Wistar rat at 10 mg/kg, po measured at 4 hrs by LC-MS/MS analysis; format: ADME, organism-based; details: read-out: Drug uptake
[35] = AUC (last) in rat at 100 mg/kg, po measured up to 24 hrs by LC-MS/MS analysis; format: ADME, organism-based; design: dose 100 mg/kg, time 0 - last, route oral; details: in vivo

half-life [1]: 90 min
AUC(0-t) at 24 h [2]: 11 to 93 µM·h
Drug metabolism [3]: 0.01 nmol/min/mg
Cmax [4]: 14 µM
clearance [5]: 10 mL/min/kg
bioavailability [6]: 37 to 100%
fraction unbound [7]: < 0.01
inhibition at 10 min, 10 µM (CYP2C9): 35%
Vd [8]: 1 L/kg
AUC(0-t) at 24 h [9]: 6 to 24 µM·h
AUC(0-t) at 24 h [11]: 77 µM·h
Drug metabolism [13]: 0.01 nmol/min/mg
fraction unbound [14]: < 0.01
Cmax [15]: 1.6 to 6 µM
concentration at 4 h [16]: 1250 nM
Cmax [17]: 6 µM
Tmax [18]: 2 to 4 h
Vd [19]: 1.1 L/kg
Drug uptake [20]: Active
Kp at 4 h [21]: 6
inhibition at 10 min, 10 µM (CYP2D6): 36%
Cmax [22]: 43 µM
Tmax [23]: 1 to 4 h
Tmax [24]: 0.25 to 2 h
AUC(0-t) at 24 h [26]: 4 µM·h
bioavailability [27]: 30%
inhibition at 10 min, 10 µM (CYP3A4): 56%
AUC(0-t) at 24 h [29]: 2 µM·h
clearance [31]: 5 mL/min/kg
half-life [33]: 240 min
concentration at 4 h [34]: 7.4 µM
AUC(0-t) at 24 h [35]: 468 µM·h
SMILES: COC(=O)N[C@H](C(=O)N1CCC[C@H]1c1ncc(-c2ccc3c(c2)CCc2cc(-c4cnc([C@@H]5CCCN5C(=O)[C@@H](NC(=O)OC)C(C)C)[nH]4)sc2-3)[nH]1)C(C)C
inhibition at 72 h, 10 µM [10]: 28%
inhibition at 72 h, 10 µM [12]: 6%
Activity [25]: Toxic
inhibition at 72 h, 3 µM [28]: 0%
inhibition at 72 h, 3 µM [30]: 2%
inhibition at 72 h, 3 µM [32]: 2%
